Read-outs that look alike come from different tables or passages of the source.
Experiments:
[1] = tested on: DFMO-Induced Thrombocytopenia; conditions: rat, in vivo
Description: (§1) Central venous catheters were inserted into Fisher 344 male rats. […] This concentration is equimolar to the arginine concentration in 10% Travasol. After 12 days of infusion the rats were sacrificed and platelet counts were determined in peripheral blood.

[2] = human, in vivo
Description: FIG. 4. Platelet counts plotted against days of continuous i.v. DFMO infusion in patients with advanced colorectal carcinoma. […] The paired points are connected by a straight line.
There was no incidence of nausea, vomiting or diarrhea.

[3] = Toxicity of continuous i.v. DFMO infusion for 12 days in tumor-bearing and non-tumor-bearing rats; format: in vivo, rat
Description: FIG. 3. […] Bars indicate standard deviation.
In the above described rat model, a continuous infusion of DFMO was given through a central venous catheter.

[4] = tested on: ornithine decarboxylase (ODC); conditions: cited from earlier work
[5] = RBC putrescine in tumor-bearing versus non tumor-bearing rats infused with feeding solutions; conditions: NTB rats; p<0.05
Description: A methylcholanthrene-induced fibrosarcoma (0.17 g) was implanted as a brei into the right flank under anesthesia and the animals were fed a chow diet for 21 days. When the tumors were at least 1.0 cm in width, two-dimensional measurements with calipers were instituted and the equation, length (cm)×(width [cm])^2 ×1/2=grams of tumor tissue, was used to estimate tumor weight. […] The animals were then allowed to recover overnight and continuous infusions were started the next morning. […] After 6 days of continuous infusion, the animals were sacrificed by aortic bleeding. Liver and tumor were excised and weighed and kept frozen at -70° C. until assays were done. Only viable, nonnecrotic tumor tissue was saved and assayed.

[6] = in words; tumor and RBC
Description: After obtaining the blood sample by venipuncture, or some other suitable means, blood hematocrit is determined and the blood is centrifuged for 10 minutes at 500 g. The plasma is removed for albumin determination and the remaining cells are washed with an equal volume of cold 0.9% NaCl and centrifuged at 200 g for 15 minutes. The buffy coat is then carefully aspirated along with the supernatant and discarded. After thoroughly mixing the packed RBC, a 1.0 ml aliquot is extracted for polyamine analysis. While shaking continuously with a Vortex mixer, 2.5 ml of freshly prepared 6% trichloroacetic acid (TCA) is added followed by 60 ul of 100% TCA. This is done to avoid insufficient mixing if 100% TCA is added directly to RBC. The samples are mixed thoroughly for a minimum of 3 minutes and frozen at -70° C. if further extraction steps are performed. The samples are thawed and centrifuged at 200×g for 15 minutes. The supernatant is then transferred to tubes containing 40 ul of concentrated HCl. The samples are washed twice with anhydrous ether and dried. The pellets are dissolved in 100 ul of 0.5 N HCl and centrifuged at 200 g. The clear supernatant is then analyzed for polyamines using, for example, a Durrum D-500 amino acid analyzer.
A methylcholanthrene-induced fibrosarcoma (0.17 g) was implanted as a brei into the right flank under anesthesia and the animals were fed a chow diet for 21 days. […]

[7] = tested on: DFMO-Induced Thrombocytopenia; experiment: Influence of ornithine co-administration on DFMO-induced thrombocytopenia in the rat; conditions: in words
Description: as §1

**Q.** For `NCCCC(N)(C(=O)O)C(F)F` (stereo not shown) [DFMO, Difluoromethylornithine], which “effect on platelet suppression / platelet count” value [1] is on record?
**A.** significant decrease in platelet count as compared with the saline treatment

**Q.** And the “decreased hearing acuity, patients” value [2]?
**A.** two

**Q.** What about the hematocrit [2] of the same molecule?
**A.** Significant suppression of the hematocrit was also noted with a trend toward dose related suppression

**Q.** What about the “nausea, vomiting or diarrhea” value [2] of the same molecule?
**A.** no incidence

**Q.** And the “platelet suppression, 8 g dose compared with 6 g dose” value [2]?
**A.** significantly greater platelet at the 8 g dose as compared with the 6 g dose

**Q.** What about the “time to resolution of all toxicities after discontinuing infusion” value [2] of the same molecule?
**A.** two

**Q.** What about the white cell count [2] of the same molecule?
**A.** not affected by either dose

**Q.** What about the “small intestinal mucosa histology” value ([3]; rat, in vivo) of the same molecule?
**A.** histological evidence of small intestinal mucosal atrophy

**Q.** And the “white cell count and hematocrit changes” value ([3]; rat, in vivo)?
**A.** not significantly altered

**Q.** What about the clinical toxicity ([3]; rats, 12 day study) of the same molecule?
**A.** no significant clinical toxicity

**Q.** And the ODC inhibition mode [4]?
**A.** irreversible inhibitor of ODC

**Q.** And the tumor growth (MCA sarcoma; MCA sarcoma)?
**A.** reduces the growth rate of an MCA sarcoma but does not produce tumor regression

**Q.** And the “effect on peripheral platelet counts” value (MCA sarcoma; rat, in vivo)?
**A.** without suppressing peripheral platelet counts

**Q.** With `N=C(N)NCCC[C@H](N)C(=O)O` [arginine] as the molecule, how does the “increase in RBC putrescine levels versus chow or essential amino acids only” value [5] read?
**A.** significantly greater (p<0.05) than those receiving chow or essential amino acids only

**Q.** What about the “comparison of ornithine and arginine for increase in polyamine levels” value [6] of the same molecule?
**A.** both appeared to promote an increase in tumor-related levels

**Q.** Which “effect on platelet suppression / platelet count” value [7] does the source give for `NCCC[C@H](N)C(=O)O` [ornithine] here?
**A.** significant reversal in the platelet suppression

— patent US4859452A (priority 1987, dated 1989)
